Key:
human plasma renin = target: T1, human plasma renin (Homo sapiens, UniProt P00797); assay: Renin inhibiting activities (human plasma, angiotensin I by radio immunoassay); assay type: biochemical; settings: pH7.4, 37° C., one hour, read-out: IC50 (50 % inhibition concentrations), renin inhibiting activity
T1 construct: from tissue; host or cells: human plasma
T1 sequence (P00797 67-406): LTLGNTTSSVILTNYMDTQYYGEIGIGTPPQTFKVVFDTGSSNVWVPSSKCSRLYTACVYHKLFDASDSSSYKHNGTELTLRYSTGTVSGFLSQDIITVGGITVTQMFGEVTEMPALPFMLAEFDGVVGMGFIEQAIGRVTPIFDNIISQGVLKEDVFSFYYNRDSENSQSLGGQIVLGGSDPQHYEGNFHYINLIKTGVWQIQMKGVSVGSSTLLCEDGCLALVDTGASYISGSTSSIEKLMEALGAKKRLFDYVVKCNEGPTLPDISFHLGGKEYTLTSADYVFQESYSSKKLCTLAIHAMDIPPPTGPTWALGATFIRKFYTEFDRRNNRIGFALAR
Description: To 156 μl of a 0.2M sodium phosphate buffer solution (pH7.4), 40 μl of a solution mixture of 34 mM 8-hydroxyquinoline and 100 mM disodium ethylenediamine tetraacetate, 4 μl of dimethyl sulfoxide or a dimethyl sulfoxide solution of test compound and 200 μl of human plasma were added and reacted at 37° C. for one hour. Then, pepstatin was added thereto to terminate the reaction, and the amount of the resulting angiotension I was measured by radio immunoassay whereby the inhibiting activity was determined.

marmosets = assay: Hypotensive activities in monkeys (furosemide-treated marmosets, oral administration); assay type: in vivo; settings: 30 mg/kg orally; three marmosets; furosemide 30 mg/kg pretreatment (high renin active state); FIG. 1
Description: The hypotensive activities were measured in accordance with a method disclosed in J. Cardiovascular Pharmacology, Vol. 7, (Suppl. 4) S58-61 (1985). Namely, 30 mg/kg of furosemide (diuretic) was intracutaneously injected to three marmosets i.e. small size monkeys to produce a high renin active state. To these marmosets, 30 mg/kg of the compound of Example 1 was orally administered, whereupon the hypotensive activities were measured.

Compound | IC50 (human plasma renin) | hypotensive activities (marmosets)
CCCC[C@H](NC(=O)[C@H](Cc1cccc2ccccc12)CS(=O)(=O)CC(COC(C)=O)OC(C)=O)C(=O)N[C@@H](CC1CCCCC1)[C@@H](O)[C@@H](O)CN1CCOCC1 (mixture of isomers) [Example 1, (2S, 3R, 4S)-4-{L-N-[(2S)-3-[(2RS)-2,3-diacetoxypropyl]sulfonyl-2-(1-naphthylmethyl)propionyl]norleucyl}amino-5-cyclohexyl-1-morpholino-2,3-pentanediol] | 2.5 nM | exhibits hypotensive activities by the oral administration
CCCC[C@H](NC(=O)[C@H](Cc1cccc2ccccc12)CS(=O)(=O)C1CCC(OC(C)=O)C1)C(=O)N[C@@H](CC1CCCCC1)[C@@H](O)[C@@H](O)CN1CCOCC1 (single isomer, unassigned) [Example 33 (having a low Rf value)] | 1.1 nM | 
CCCC[C@H](NC(=O)[C@H](Cc1cccc2ccccc12)CS(=O)(=O)CC(COC(C)=O)OC)C(=O)N[C@@H](CC1CCCCC1)[C@@H](O)[C@@H](O)CN1CCOCC1 (single isomer, unassigned) [Example 39] | 1.3 nM | 
CCCC[C@H](NC(=O)[C@H](Cc1cccc2ccccc12)CS(=O)(=O)CC(COC(C)=O)OC)C(=O)N[C@@H](CC1CCCCC1)[C@@H](O)[C@@H](O)CN1CCOCC1 (single isomer, unassigned) [Example 40] | 1 nM | 
CCCC[C@H](NC(=O)[C@H](Cc1cccc2ccccc12)CS(=O)(=O)CCOC(C)=O)C(=O)N[C@@H](CC1CCCCC1)[C@@H](O)[C@@H](O)CN1CCOCC1 [Example 3, (2S,3R,4S)-4{L-N-[(2S)-3-(2-acetoxyethyl)sulfonyl-2-(1-naphthylmethyl)propionyl]norleucyl)amino-5-cyclohexyl-1-morpholino-2,3-pentanediol] | 3.1 nM | 
CCCC[C@H](NC(=O)[C@H](Cc1cccc2ccccc12)CS(=O)(=O)CCOC(=O)C(C)(C)C)C(=O)N[C@@H](CC1CCCCC1)[C@@H](O)[C@@H](O)CN1CCOCC1 [Example 4] | 7.7 nM | 
CCCC[C@H](NC(=O)[C@H](Cc1cccc2ccccc12)CS(=O)(=O)CCOC(=O)OCC)C(=O)N[C@@H](CC1CCCCC1)[C@@H](O)[C@@H](O)CN1CCOCC1 [Example 5, (2S,3R,4S)-4-{L-N-[(2S)-3-(2-ethoxycarbonyloxyethyl)sulfonyl-2-(1-naphthylmethyl)propionyl]norleucyl}amino-5-cyclohexyl-1-morpholino-2,3-pentanediol] | 5 nM | 
CCCC[C@H](NC(=O)[C@@H](CSCC(COC(C)=O)OC(C)=O)Cc1cccc2ccccc12)C(=O)N[C@@H](CC1CCCCC1)[C@@H](O)[C@@H](O)CN1CCOCC1 (stereo partly drawn) [Example 7, (2S,3R,4S)-4-{L-N-[(2S)-3-[(2RS)-2,3,-diacetoxypropyl]thio-2-(1-naphthylmethyl)propionyl]norleucyl}amino-5-cyclohexyl-1-morpholino-2,3-pentanediol] | 2.8 nM | 
CCCC[C@H](NC(=O)[C@H](Cc1cccc2ccccc12)CS(=O)(=O)CC(O)COC(C)=O)C(=O)N[C@@H](CC1CCCCC1)[C@@H](O)[C@@H](O)CN1CCOCC1 (stereo partly drawn) [Example 11] | 6.3 nM | 
CCCC[C@H](NC(=O)[C@@H](CSc1ccc(OC(C)=O)cc1)Cc1cccc2ccccc12)C(=O)N[C@@H](CC1CCCCC1)[C@@H](O)[C@@H](O)CN1CCOCC1 [Example 18, (2S,3R,4S)-4-{L-N-[(2S)-3-(4-acetoxyphenylthio)-2-(1-naphthylmethyl)propionyl]norleucyl}amino-5-cyclohexyl-1-morpholino-2,3-pentanediol] | 9.2 nM | 
CC(=O)OCC(CS(=O)(=O)C[C@@H](Cc1cccc2ccccc12)C(=O)N[C@@H](Cc1c[nH]cn1)C(=O)N[C@@H](CC1CCCCC1)[C@@H](O)[C@@H](O)CN1CCOCC1)OC(C)=O (stereo partly drawn) [Example 23] | 4.8 nM | 
CC(=O)OCCS(=O)(=O)C[C@@H](Cc1cccc2ccccc12)C(=O)N[C@@H](Cc1c[nH]cn1)C(=O)N[C@@H](CC1CCCCC1)[C@@H](O)[C@@H](O)CN1CCOCC1 [Example 30] | 1.9 nM | 
CCCC[C@H](NC(=O)[C@@H](CSC1CCC(OC(C)=O)C1)Cc1cccc2ccccc12)C(=O)N[C@@H](CC1CCCCC1)[C@@H](O)[C@@H](O)CN1CCOCC1 (stereo partly drawn) [Example 34, (2S,3R,4S)-4-{L-N-[(2S)-3-(3-acetoxycyclopentyl)thio-2-(1-naphthylmethyl)propionyl]norleucyl}amino-5-cyclohexyl-1-morpholino-2,3-pentanediol] | 5.6 nM | 
CCCC[C@H](NC(=O)[C@H](Cc1cccc2ccccc12)CS(=O)(=O)C1CCCC1OC(C)=O)C(=O)N[C@@H](CC1CCCCC1)[C@@H](O)[C@@H](O)CN1CCOCC1 (stereo partly drawn) [Example 35, (2S,3R,4S)-4-{L-N-[(2S)-3-(2-acetoxycyclopentyl)sulfonyl-2-(1-naphthylmethyl)propionyl]norleucyl}amino-5-cyclohexyl-1-morpholino-2,3-pentanediol] | 3.1 nM | 
CCCC[C@H](NC(=O)[C@H](Cc1cccc2ccccc12)CS(=O)(=O)C1CCC(OC(C)=O)C1OC(C)=O)C(=O)N[C@@H](CC1CCCCC1)[C@@H](O)[C@@H](O)CN1CCOCC1 (stereo partly drawn) [Example 36, (2S,3R,4S),4-{L-N-[(2S)-3-(2,3-diacetoxycyclopentyl)sulfonyl-2-(1-naphthylmethyl)propionyl]norleucyl}amino-5-cyclohexyl-1-morpholino-2,3-pentanediol] | 1.9 nM | 
CCCC[C@H](NC(=O)[C@H](Cc1cccc2ccccc12)CS(=O)(=O)C1C(OC(C)=O)CCC1OC(C)=O)C(=O)N[C@@H](CC1CCCCC1)[C@@H](O)[C@@H](O)CN1CCOCC1 (stereo partly drawn) [Example 37, (2S,3R,4S)-4-{L-N-[(2S)-3-(2,5-diacetoxycyclopentyl)sulfonyl-2-(1-naphthylmethyl)propionyl]norleucyl}amino-5-cyclohexyl-1-morpholino-2,3-pentanediol] | 2.9 nM | 
CCCC[C@H](NC(=O)[C@H](Cc1cccc2ccccc12)CS(=O)(=O)CC(COC(C)=O)=NOC)C(=O)N[C@@H](CC1CCCCC1)[C@@H](O)[C@@H](O)CN1CCOCC1 [Example 41, (2S,3R,4S)-4-{L-N-[(2S)-3-(3-acetoxy-2-methoxyiminopropyl)sulfonyl-2-(1-naphthylmethyl)propionyl]norleucyl}amino-5-cyclohexyl-1-morpholino-2,3-pentanediol] | 0.79 nM | 
CCCC[C@H](NC(=O)[C@H](Cc1cccc2ccccc12)CS(=O)(=O)CC(COC(C)=O)=NO)C(=O)N[C@@H](CC1CCCCC1)[C@@H](O)[C@@H](O)CN1CCOCC1 [Example 42, (2S,3R,4S)-4-{L-N-[(2S)-3-(3-acetoxy-2-hydroxyiminopropyl)sulfonyl-2-(1-naphthylmethyl)propionyl]norleucyl}amino-5-cyclohexyl-1-morpholino-2,3-pentanediol] | 6.1 nM | 
COC(COC(C)=O)CS(=O)(=O)C[C@@H](Cc1cccc2ccccc12)C(=O)N[C@@H](Cc1cscn1)C(=O)N[C@@H](CC1CCCCC1)[C@@H](O)[C@@H](O)CN1CCOCC1 (stereo partly drawn) [Example 44, (2S,3R,4S)-4-{L,N-[(2S)-3-[(2RS)-3-acetoxy-2-methoxypropyl]sulfonyl-2-(1-naphthylmethyl)propionyl]-(4-thiazolyl)alanyl}amino-5-cyclohexyl-1-morpholino-2,3-pentanediol] | 1.8 nM | 
CCCC[C@H](NC(=O)[C@H](Cc1cccc2ccccc12)CS(=O)(=O)CC(COC(C)=O)(OCC)OCC)C(=O)N[C@@H](CC1CCCCC1)[C@@H](O)[C@@H](O)CN1CCOCC1 [Example 48, (2S,3R,4S)-4-{L-N-[(2S)-3-(3-acetoxy-2,2-diethoxypropyl)sulfonyl-2-(1-naphthylmethyl)propionyl]norleucyl}amino-5-cyclohexyl-1-morpholino-2,3-pentanediol] | 3.9 nM | 

— patent US5424309A, “N-substituted acylamino acid compounds, process for their production and their use” (Banyu Pharmaceutical Co., Ltd., priority 1988, dated 1995)
